The values below come from article PMC7583046, “The Paralogue of the Intrinsically Disordered Nuclear Protein 1 Has a Nuclear Localization Sequence that Binds to Human Importin α3” (International Journal of Molecular Sciences, 2020).

The target of data set [1] is T1, human importin α3 (Impα3) (Homo sapiens, UniProt O00629).
T1 construct: Human importin α3 isoform (residues 1–521); His-tag (N); made in house; host or cells: E. coli BL21 (DE3)
T1 sequence (O00629 1-521): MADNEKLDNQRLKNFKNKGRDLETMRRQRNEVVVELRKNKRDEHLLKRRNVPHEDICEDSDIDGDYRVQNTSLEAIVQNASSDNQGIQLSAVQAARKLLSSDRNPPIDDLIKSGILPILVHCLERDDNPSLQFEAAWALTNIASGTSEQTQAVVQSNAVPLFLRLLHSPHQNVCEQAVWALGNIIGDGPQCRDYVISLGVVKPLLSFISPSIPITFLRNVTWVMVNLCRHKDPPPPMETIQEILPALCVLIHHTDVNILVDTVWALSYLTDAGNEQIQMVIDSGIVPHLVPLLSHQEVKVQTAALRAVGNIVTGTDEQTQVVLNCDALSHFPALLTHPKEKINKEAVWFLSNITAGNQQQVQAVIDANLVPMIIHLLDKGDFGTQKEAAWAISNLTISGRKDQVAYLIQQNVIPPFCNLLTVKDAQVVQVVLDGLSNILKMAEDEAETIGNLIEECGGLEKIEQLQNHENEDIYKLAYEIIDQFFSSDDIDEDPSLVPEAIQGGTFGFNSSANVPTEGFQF
In words: Isothermal titration calorimetry, binding to Impα3. The conditions noted are these: Tris 50 mM pH 8, 298 K. From the text:
(§1) Figure 4 Binding of NLS-NUNPR1L to both importin species: (A) Titration curve monitoring the changes of Impα3 fluorescence at 340 nm in the presence of NLS-NUPR1L, after excitation at 280 nm. (B) Titration curve monitoring the changes of ∆Impα3 fluorescence at 340 nm in the presence of NLS-NUPR1L, after excitation at 280 nm. […] (C) Calorimetric binding isotherms (ligand normalized heat effect per injection as a function of the ligand/protein molar ratio) for the interaction of NLS-NUPR1L with Impα3 (left) and ∆Impα3 (right) are shown, with the thermogram (raw thermal power data as a function of time) at the top of each panel. Binding parameters were estimated by non-linear least squares regression data analysis of the interaction isotherms applying a single ligand binding site model implemented in Origin 7.0. (OriginLab, Northampton, MA, USA).
(§2) The experimental set-up and data processing of ITC experiments have been described previously. […] The temperature for all experiments was 298 K. The experiments were analyzed applying a model considering a single ligand binding site (1:1 stoichiometry for the NLS-NUPR1L/Impα3 (or ∆Impα3) interaction) implemented in Origin 7.0 (OriginLab, Northampton, MA, USA).
In general terms: In ITC the heat of successive injections is recorded.

Data set [2] deals with T2, ∆Impα3 (Impα3 without IBB, residues 64-521) (Homo sapiens, UniProt O00629).
T2 construct: codon-optimized, His-tagged ∆Impα3 (residues 64-521) were carried out using BL21 (DE3) cells; His-tag; made in house; host or cells: E. coli BL21 (DE3)
T2 sequence (O00629 64-521): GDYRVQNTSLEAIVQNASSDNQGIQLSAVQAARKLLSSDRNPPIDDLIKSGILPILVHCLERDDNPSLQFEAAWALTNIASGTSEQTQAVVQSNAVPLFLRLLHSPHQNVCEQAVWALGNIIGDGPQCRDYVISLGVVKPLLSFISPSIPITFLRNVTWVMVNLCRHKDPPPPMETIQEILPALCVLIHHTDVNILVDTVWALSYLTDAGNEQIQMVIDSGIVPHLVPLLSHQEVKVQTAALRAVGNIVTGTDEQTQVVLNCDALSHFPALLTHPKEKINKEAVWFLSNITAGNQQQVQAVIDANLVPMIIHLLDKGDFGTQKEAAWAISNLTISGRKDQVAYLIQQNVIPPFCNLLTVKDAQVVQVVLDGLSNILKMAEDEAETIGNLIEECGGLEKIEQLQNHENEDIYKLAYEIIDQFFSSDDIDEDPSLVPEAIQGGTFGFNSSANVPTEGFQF
The experiment in a line: Isothermal titration calorimetry, binding to ∆Impα3. The conditions noted are these: Tris 50 mM pH 8, 298 K.
From the text: as §1, §2

Data set [3] can be described thus: DOSY translational diffusion NMR. The conditions noted are these: 120 μM peptide, 283 K. Format: physicochemical. As for the experimental part: The peptide concentration in DOSY experiment was 120 μM, and 128 scans were acquired, where the gradient strength was varied linearly. Translational self-diffusion measurements were performed with the pulsed-gradient spin-echo sequence in the presence of 100% D2O. Experimental details have been described elsewhere. The gradient strength was varied in sixteen linear steps between 2 and 95% of the total power of the gradient coil. The gradient strength was calibrated using the value of the translational diffusion coefficient, D, for the residual proton water signal in a sample containing 100% D2O in a 5 mm tube [53]. The length of the gradient was 2.25 ms, the time between the two pulse gradients in the pulse sequence was 200 ms, and the recovery delay between the bipolar gradients was 100 μs. The methyl groups with signals between 1.0 and 0.80 ppm were used for peak integration (Section 2.2.1). Fitting of the exponential curves, obtained from experimental data as previously described, was carried out with KaleidaGraph version 3.5 (Synergy Software, Reading, PA, USA). A final concentration of 1% of dioxane, which was assumed to have a hydrodynamic radius Rh = 2.12 Å [53], was added to the peptide solution.

Data set [4] is described as follows: Aggregation / self-association tendency. Format: physicochemical. The conditions noted are these: isolated peptide, refers to Section 2.2.1.

On to “Ac-RTRREQALRTNWPAPGGHERKVAQ-NH2 [NLS-NUPR1L]”, for which, in data set [1], the “n, stoichiometry (ITC), Impα3” value worked out at 1.04 ± 0.05 and the “∆H (ITC), Impα3” value was -3.1 ± 0.5 kcal/mol. For the same substance, in data set [2], the “n, stoichiometry (ITC), ∆Impα3” value turned out to be 0.75 ± 0.06 and the “∆H (ITC), ∆Impα3” value was -2.4 ± 0.5 kcal/mol. Besides, the “translational diffusion coefficient D” value in data set [3] (100% D2O, pH 7.2, 50 mM Tris) is recorded as 1.74 ± 0.05 × 10^−6 cm^2 s^−1. The association state entry in data set [3] is “monomeric”. Moreover, in data set [3] (estimated by comparison with dioxane (1%)), the “hydrodynamic radius Rh” value is 12 ± 2 Å. Besides, the tendency to aggregate entry in data set [4] is recorded as “did not have any tendency to aggregate”.
